“Also recorded” adds a separate entry of the source.
Legend:
[1] = Rodent acute tolerability test, liver function tests (Example 5); format: in vivo, Female Sprague Dawley rats; settings: rat; for LFT blood levels ALT and AST (in words): intravenous bolus, about 24 hours post dose; for serum biomarkers of hepatotoxicity (in words): in vivo
Procedure: Compounds of Formula (I) were assessed for acute tolerability in a rodent model at dose levels ranging from 100-200 mg/kg based upon the minimum efficacious dose of each compound. Female Sprague Dawley rats were administered up to a 10 mL/kg dose volume of each compound in 0.9% saline at appropriate concentrations as an intravenous bolus via the lateral tail vein. The animals were observed immediately post dose and for up to twenty four hours post dose and clinical observations were recorded. Additionally, approximately twenty four hours post dose animals were euthanized and blood taken for serum chemistry analysis with a focus on liver function tests (LFTs). The maximum tolerated single dose and LFT results are summarized in Table 3 in FIG. 3, where ( ? ) indicates blood levels of markers for potential liver damage within normal range and (↑) indicates blood levels of markers for potential liver damage elevated above normal range. Referring to the data in Table 3, LFT blood levels of markers for potential liver damage remained within normal range for the compounds of Formula (I), while LFTs were elevated for Comparator Compounds including 5-10 fold elevation above normal for ALT and AST blood levels observed upon administration of Comparator Compound 1.

[2] = Aqueous solubility (Example 2); format: physicochemical; settings: method of Example 2
Procedure: Compounds of Formula (I) where R^1 is —CH2—R^1a, and R^1a is phosphate, have suitable levels of aqueous solubility for incorporation in a pharmaceutical composition formulated for intravenous administration. Unless otherwise indicated, the aqueous solubility of compounds of Formula (I) in Tables in FIG. 1 was measured using the procedure of Example 2 (Kerns, E. H., Journal of Pharmaceutical Sciences 2001, 90, 1838-1858, incorporated herein by reference). Solubility data was obtained by this method for compounds of Formula (I) and included in FIG. 1. The chromatographic data was performed using (type of HPLC). The column used was an Xbridge Shield RP18 with the following column dimensions: 4.6×30 mm, 3.5 μm. The mobile phase consisted of deionized water (MPA) with trifluoroacetic acid added in at 0.1% (v/v) (MPC) and HPLC-grade acetonitrile (MPB). The mobile phase flow rate was 2.5 mL/min with the column and sampling operating at ambient temperature. UV detection was set to 280 nm. For all samples used for solubility determination, the mobile phase gradient used was as follows in Table 1g below.
Stock solutions of compounds of Formula (I) where R^1 is —CH2—R^1a, and R^1a is phosphate, were prepared in water at 20 mg/mL. Stock solutions of the compounds of Formula (I), wherein R^1 is hydrogen, were prepared in dimethyl acetamide at 20 mg/mL. […]

CFA Cold Allodynia = assay: Rodent cold plate pain model, Complete Freund's Adjuvant (Example 4); format: in vivo; settings: rat
Procedure: CFA-induced pain test method reported in del Camino et al., J. Neurosci., 30 (45):15165-15174, incorporated herein by reference in its entirety. Briefly, the right hind paw is sensitized to cold temperature (allodynic) by administering 0.1 mL of Complete Freund's Adjuvant (CFA) to that paw. Two to four days later, the time it takes for the animal to lift its CFA-injected paw from the cold surface is recorded compared to its un-injected normal left hind paw. […] To avoid tissue damage, the maximum cut-off time is five minutes. Animals that are allodynic (average PWL to the first three pain behaviors<150 seconds for the CFA-injected hind paw: ˜≧50% difference between the normal and CFA-injected paw) are included in the study and subsequently randomized across treatment groups. The following day, the animals in some groups are dosed with a test compound under blinded conditions. Following the one to two hour pre-treatment time, the post-dose PWL readings are taken again. The efficacy of the drug treatment is assessed by comparing the PWL in the drug treatment animals to those that receive the vehicle.

Row | SMILES | LFT blood levels ALT and AST (in words) [1] | serum biomarkers of hepatotoxicity (in words) [1] | other results
1 | C[C@H]1CCCN1c1ncc(-c2cncc(N(COP(=O)(O)O)C(=O)[C@H](C)n3cnc4c3c(=O)n(C)c(=O)n4C)n2)cn1 [((S)-2-(1,3-dimethyl-2,6-dioxo-1,2,3,6-tetrahydro-7H-purin-7-yl)-N-(6-(2-((S)-2-methylpyrrolidin-1-yl)pyrimidin-5-yl)pyrazin-2-yl)propanamido)methyl dihydrogen phosphate] | did not result in abnormally high levels of LFT compounds ALT or AST |  | 
2 | C[C@H]1CCCN1c1ccc(-c2csc(NC(=O)Cn3cnc4c3c(=O)n(C)c(=O)n4C)n2)cc1F [Comparator Compound 1, reference compound] |  | elevate the serum biomarkers of hepatotoxicity | 
3 | C[C@H]1CCCN1c1ncc(-c2cccc(NC(=O)Cn3cnc4c3c(=O)n(C)c(=O)n4C)n2)cn1 [Comparator Compound 2, reference compound] |  | did not elevate the serum biomarkers of hepatotoxicity | aqueous solubility (in words) [2]: undesirably low aqueous solubility
4 | C[C@@H](C(=O)N(COP(=O)([O-])O)c1cccc(-c2cnc(N3CCC[C@H]3C(F)(F)F)nc2)n1)n1cnc2c1c(=O)n(C)c(=O)n2C.[Na+] [Compound 1-A, ((S)-2-(1,3-dimethyl-2,6-dioxo-1,2,3,6-tetrahydro-7H-purin-7-yl)-N-(6-(2-((S)-2-(trifluoromethyl)pyrrolidin-1-yl)pyrimidin-5-yl)pyridin-2-yl)propanamido)methyl dihydrogen phosphate] | did not result in abnormally high levels of LFT compounds ALT or AST |  | effect on cold allodynia (in words) (CFA Cold Allodynia; CFA cold plate model): analgesic effect on cold allodynia; also recorded: reversal of CFA Cold Allodynia; Paw Withdrawal Latency (PWL) (in words) (CFA Cold Allodynia; i.p. administration, CFA model, cold plate 1° C.): increased rodent Paw Withdrawal Latency
5 | C[C@@H](C(=O)N(COP(=O)(O)O)c1cncc(-c2cnc(N3CCC[C@H]3C(F)(F)F)nc2)n1)n1cnc2c1c(=O)n(C)c(=O)n2C [Compound 2-E, ((S)-2-(1,3-dimethyl-2,6-dioxo-1,2,3,6-tetrahydro-7H-purin-7-yl)-N-(6-(2-((S)-2-(trifluoromethyl)pyrrolidin-1-yl)pyrimidin-5-yl)pyrazin-2-yl)propanamido)methyl dihydrogen phosphate] | did not result in abnormally high levels of LFT compounds ALT or AST |  | 
6 | C[C@@H](C(=O)N(COP(=O)(O)O)c1cncc(-c2cnc(N3CCCC3(C)C)nc2)n1)n1cnc2c1c(=O)n(C)c(=O)n2C [Compound 3-J, (S)-(2-(1,3-dimethyl-2,6-dioxo-1,2,3,6-tetrahydro-7H-purin-7-yl)-N-(6-(2-(2,2-dimethylpyrrolidin-1-yl)pyrimidin-5-yl)pyrazin-2-yl)propanamido)methyl dihydrogen phosphate] | did not result in abnormally high levels of LFT compounds ALT or AST |  | 

Reference: patent US9394308B2, “Inhibiting the transient receptor potential A1 ion channel” (Merck Sharp & Dohme Corp., priority 2013, dated 2016)
